Source: US8148058B2, “Method for screening allergic disease-related molecule and cell lines to be used in the method” (Tokyo University of Science Educational Foundation …, priority 2006, dated 2012)

B1: IL-10: cytokine (protein, UniProt P22301 19-178, looked up)
Interleukin-10: SPGQGTQSENSCTHFPGNLPNMLRDLRDAFSRVKTFFQMKDQLDNLLLKESLLEDFKGYLGCQALSEMIQFYLEEVMPQAENQDPDIKAHVNSLGENLKTLRLRLRRCHRFLPCENKSKAVEQVKNAFNKLQEKGIYKAMSEFDIFINYIEAYMTMKIRN
B2: IL-7: cytokine (protein, UniProt P13232 26-177, looked up)
Interleukin-7: DCDIEGKDGKQYESVLMVSIDQLLDSMKEIGSNCLNNEFNFFKRHICDANKEGMFLFRAARKLRQFLKMNSTGDFDLHLLKVSEGTTILLNCTGQVKGRKPAALGEAQPTKSLEENKSLKEQKKLNDLCFLKRLLQEIKTCWNKILMGTKEH
B3: IL-4: recombinant cytokine, manufactured by PeproTech (protein, UniProt P05112 25-153, looked up)
Interleukin-4: HKCDITLQEIIKTLNSLTEQKTLCTELTVTDIFAASKNTTEKETFCRAATVLRQFYSHHEKDTRCLGATAQQFHRHKQLIRFLKRLDRNLWGLAGLNSCPVKEANQSTLENFLERLKTIMREKYSKCSS

Assays:
RCCM cells = assay: Proliferation of RCCM cells, 3H-thymidine uptake; type: cell-based, mouse; details: 48 hours culture, then 12 hours 3H-thymidine; for proliferation of RCCM cells in response to inhibitor (uptake amount of 3H-thymidine): 1/2 serial dilutions starting with 10 ng/ml
Procedure: (§1) R cells, N62.5 cells, or RCCM cells obtained in Example 1 were placed in each well of a 96-well microplate at a seeding density of 1.5×10^4 cells/well. A culture medium in which the content of RCGF was changed was used and the sensitivities of the cells to RCGF were confirmed.
(§2) The concentrations of RCGF were set to 10 v/v %, 0.1 v/v %, and 0 v/v %. The cells were cultured in an RPMI 1640 culture medium containing 10% by volume of serum at 37° C. in 5% CO2 atmosphere for 48 hours. Thereafter, ^3H-thymidine was added to the culture medium so as to give a final concentration of 0.5 μCi/ml, and the resultant was further cultured for 12 hours and the uptake amount of ^3H during the time was measured. After the reaction, the uptake amount of ^3H-thymidine was measured using MicroBeta TRIL UX (manufactured by WALLAC). In FIGS. 1 (A) to (C), black rhombuses indicate RCCM cells, black squares indicate R cells, and black triangles indicate N62.5 cells.
R cells, N62.5 cells, or RCCM cells obtained in Example 1 were placed in each well of a 96-well microplate at a seeding density of 1.5×10^4 cells/well.
(§3) In this regard, the concentration of RCGF was based on ½ serial dilutions (starting with 80% by volume of the culture medium). […] Thereafter, ^3H-thymidine was added to the culture medium so as to give a final concentration of 0.5 μCi/ml, and the resultant was further cultured for 12 hours and the uptake amount of ^3H during the time was measured. […]
R cells, N62.5 cells, or RCCM cells obtained in Example 1 were placed in each well of a 96-well microplate at a seeding density of 1.5×10^4 cells/well in the same manner as described in Example 4. ½ serial dilutions (starting with 10 ng/ml) of phorbol 12-myristate 13 acetate (PMA) were added to each well, and culturing was performed at 37° C. in 5% CO2 atmosphere for 48 hours. Thereafter, ^3H-thymidine was added to the culture medium so as to give a final concentration of 0.5 μCi/ml, which was further cultured for 12 hours and the uptake amount of ^3H during the time was measured. […]

R cells = assay: Proliferation of R cells, 3H-thymidine uptake; type: cell-based, mouse; details: 1/2 serial dilutions starting with 10 ng/ml; 48 hours culture, then 12 hours 3H-thymidine
Procedure: as §1
as §2, with “cells. […]” for “cells.”
as §3

N62.5 cells = assay: Proliferation of N62.5 cells, 3H-thymidine uptake; type: cell-based, mouse; details: 48 hours culture, then 12 hours 3H-thymidine
Procedure: as §1
as §2, with “cells. […]” for “cells.”
as §3

P185 cells = assay: Proliferation of P185 cells (basophil-like cell line), 3H-thymidine uptake; type: cell-based; details: 1/2 serial dilutions starting with 10 ng/ml; 48 hours culture, then 12 hours 3H-thymidine
Procedure: R cells, N62.5 cells, or RCCM cells obtained in Example 1 and P185 cells (a basophil-like cell line) were placed in each well of a 96-well microplate at a seeding density of 1.5×10^4 cells/well in the same manner as described in Example 4. ½ serial dilutions (starting with 10 ng/ml) of LY294002 (a PI3K inhibitor; Cat No. FA-002, manufactured by SuperArray) and Rottlerin (a PKC inhibitor; Cat No. 557370, manufactured by CALBIOCHEM) were added to each well, which was cultured at 37° C. in a 5% CO2 atmosphere for 48 hours. Thereafter, ^3H-thymidine was added to the culture medium so as to give a final concentration of 0.5 μCi/ml, and culturing was further performed for 12 hours and the uptake amount of ^3H during the time was measured. In FIGS. 7 and 8, black squares indicate R cells, black triangles indicate N62.5 cells, black rhombuses indicate RCCM cells, and black circles indicate P185. FIG. 7 is a graph showing the response of respective cells to LY294002. FIG. 8 is a graph showing the response of respective cells to Rottlerin.

R cell = assay: Maintenance / growth potential of R cells in culture with cytokines or RCGF; type: cell-based, mouse
Procedure: Further, anti-Thy1.2 antibodies (manufactured by Pharmingen) and complement (rabbit serum, manufactured by Pel-Freeze) were respectively added to the resulting culture at 1 μg/ml and at a final concentration of 10% by volume per 1×10^7 cells/100 μl. After about 30 minutes of reaction, […] therefrom and the cultivation was continued while the RCGF was added at various concentrations.
Thereafter, respective cell lines were cultured in accordance with the dilution method over the course of three weeks and cloned.

Molecule	sensitivity / growth potential of R cell against cytokine (R cell)	further results
CCCCCCCCCCCCCC(=O)O[C@@H]1[C@@H](C)[C@@]2(O)[C@@H](C=C(CO)C[C@]3(O)C(=O)C(C)=C[C@@H]23)[C@@H]2C(C)(C)[C@]12OC(C)=O [PMA, phorbol 12-myristate 13 acetate]		proliferation of RCCM cells in response to inhibitor (uptake amount of 3H-thymidine) (RCCM cells): suppressed by a low concentration
CC(=O)c1c(O)c(C)c(O)c(Cc2c(O)c3c(c(C(=O)/C=C/c4ccccc4)c2O)OC(C)(C)C=C3)c1O [Rottlerin]		proliferation of RCCM cells in response to inhibitor (uptake amount of 3H-thymidine) (RCCM cells): rapidly suppressed; proliferation of R cells in response to inhibitor (uptake amount of 3H-thymidine) (R cells): rapidly suppressed; proliferation of N62.5 cells in response to inhibitor (uptake amount of 3H-thymidine) (N62.5 cells; 1/2 serial dilutions starting with 10 ng/ml): rapidly suppressed; proliferation of basophil-like cell line P185 in response to inhibitor (uptake amount of 3H-thymidine) (P185 cells): growth inhibition
GM-CFS: cytokine	does not show sensitivity	
IFN-γ: cytokine	does not show sensitivity	
IL-5: interleukin, Th2 type cytokine	high growth potential	
IL-6: interleukin, Th2 type cytokine	high growth potential	
IL-9: interleukin, Th2 type cytokine	high growth potential	
IL-13: interleukin, Th2 type cytokine	high growth potential	
B1	does not show sensitivity	
B2	does not show sensitivity	
B3	high growth potential	proliferative response of RCCM cells to RCGF / cytokines (uptake amount of 3H-thymidine) (RCCM cells; various concentrations): no difference in growth potential; proliferative response of N62.5 cells to RCGF / cytokines (uptake amount of 3H-thymidine) (N62.5 cells; various concentrations): did not show sensitivity
